# Measured values from US5753623A, “Method of treatment for depression” (Connetics Corporation, priority 1995, dated 1998).
# Assays:
# [1] = system: Male Lewis mice; assay: Mouse forced swimming wheel model; type: in vivo; conditions: 50 μg/kg/day subcutaneous, two hours before the test, versus placebo control
# Method: This is a modification of the forced swimming wheel test described by Kasahara, et al., Life Sci., 52(22):1741-1749 (1993).
# Male Lewis mice are divided into control and treatment groups. Two hours before the test, the control and treatment groups, respectively, receive subcutaneous injections of placebo or 50 μg/kg/day of recombinant human relaxin (H2) formulated as described in allowed U.S. Ser. No. 08/050,745. The mice are individually placed in the swimming wheel and the number of turns of the wheel is recorded for each. Antidepressant activity is indicated by an increased number of turns in the treatment group.
# [2] = system: scleroderma patients; assay: Monitoring of overall wellbeing in Phase I clinical trials in scleroderma patients; type: in vivo, human
# Text: Recombinant human relaxin (H2) in currently in Phase I human clinical trials in scleroderma patients. Scleroderma is a disease involving an imbalance in tissue reformation giving rise to the overproduction of collagen, and ultimately resulting in swelling and hardening of the skin (and affected organs).
# Relaxin is currently the subject of Phase I clinical trials involving scleroderma patients. Scleroderma is a disease involving an imbalance in tissue reformation giving rise to the overproduction of collagen, and ultimately resulting in swelling and hardening of the skin (and affected organs). Part of the clinical testing of relaxin in scleroderma patients included the monitoring of overall wellbeing.
# [3] = system: patients; assay: Relaxin treatment regimen with gradually decreased dosage (Example 5); type: in vivo, human; conditions: about 6 μg/kg, then dosage gradually decreased to minimum dose or zero
# Method: Relaxin is administered in patient-dependent doses (about 6 μg/kg) sufficient to maintain serum concentrations of at least about 1.0 ng/ml (approximating relaxin concentration during pregnancy).
# [4] = system: patient with severe systemic scleroderma; assay: Human antidepressant activity, missed doses and readministration (Example 4); type: in vivo
# Method: A patient diagnosed as having severe systemic scleroderma with systemic sclerosis, was undergoing compassionate use therapy with relaxin. They were being treated with 1.5 mg per day of recombinant human relaxin (H2) in a buffered citrate solution adjusted to pH 5.0, divided into six equal doses by subcutaneous injection to achieve a circulating concentration of about 1.0 ng/ml.
# [5] = Serum concentrations of relaxin in the ongoing clinical trials; type: in vivo, human
# Method: While human dosage levels for treating depression have yet to be optimized for relaxin, generally, a daily dose is from about […] of body weight per day, preferably about […] μg/kg, and most preferably about 12.0 to 100.0 μg/kg. Generally it is sought to obtain a serum concentration of relaxin approximating or greater than normal circulating levels in pregnancy, i.e., 1.0 ng/ml, such as 0.5 to 50 ng/ml, preferably 1.0 to 20 ng/ml. […] Thus, for administration to a 70 kg person, the dosage range would be about 7.0 μg to 3.5 mg per day, preferably about […] to 2.1 mg per day, and most preferably about […] per day. The amount of relaxin administered will, of course, be dependent on the subject and the severity of the affliction, the manner and schedule of administration and the judgment of the prescribing physician. One treatment regimen can employ a higher initial dosage level (e.g., 100 to 200 μg/kg/day) followed by decreasing dosages to achieve steady relaxin serum concentration of about 1.0 ng/ml. Another treatment regimen, particularly for postpartum depression, entails administration of an amount of relaxin sufficient to attain normal pregnancy levels of relaxin (about 1.0 ng/ml) followed by gradual decreasing dosages until relaxin serum levels are no longer detectable (e.g., less than about 20 pg/ml), optionally discontinuing treatment upon reaching that dosage level.
# [6] = Serum relaxin concentrations after single subcutaneous administration to a scleroderma patient; type: in vivo, human; conditions: 10 μg/kg single subcutaneous injection
# Method: FIG. 1 is a graph showing serum relaxin concentration (ng/ml) as measured against time after administration of a single subcutaneous dose of 10 μg/kg to a scleroderma patient.
# Relaxin (10 μg/kg) was administered as a single subcutaneous injection to a scleroderma patient. Blood samples were obtained at timed intervals and measured for serum relaxin concentration (ng/ml). Peak serum concentration was attained at about 2 hours post dosing.
# [7] = system: patient with severe systemic scleroderma; assay: Human antidepressant activity, dose ranging phase (Example 3); type: in vivo; conditions: 0.5 mg bolus subcutaneous
# Method: A patient diagnosed as having severe systemic scleroderma with systemic sclerosis, was undergoing compassionate use therapy with relaxin. In a dose ranging phase of the therapy, recombinant human relaxin (H2) in a buffered citrate solution adjusted to Ph 5.0 was administered as a bolus subcutaneous injection of 0.5 mg.
# [8] = system: female subjects after childbirth; assay: Clinical trial for treatment of postpartum depression (Example 6); type: in vivo, human; conditions: osmotic pump 50 μg/kg/day subcutaneous from three days after childbirth, three months, versus placebo
# Method: One hundred pregnant female subjects are monitored for relaxin serum concentration during the course of their pregnancy. The subjects are randomized and divided into treatment and control groups. Three days after childbirth, in the treatment group, relaxin is administered by subcutaneous placement of a relaxin-containing osmotic pump delivering 50 μg/kg/day of recombinant human relaxin (H2); in the control group, placebo is administered by subcutaneous placement of a placebo-containing osmotic pump. The subjects are required to maintain a diary documenting their mood (e.g., joy/euphoria/depression/anxiety) over a period of three months following placement of the drug/placebo. The same is documented, along with relaxin serum concentration, by weekly visits to the treating physician.
substance,measurement,setting,value
relaxin,number of turns of the swimming wheel,[1],increased number of turns as compared to the control group
same,effect of discontinuation of therapy on mood,[2]; discontinuation of therapy,malaise described as best comparable to postpartum depression
same,reversibility of malaise,[2]; resumption of treatment,reversible upon resumption of treatment
same,mood during treatment,[2]; treatment of scleroderma with relaxin,mood elevations corresponded to peak dosing periods
same,depression associated with withdrawal,[3],do not experience depression associated with precipitous withdrawal
same,mood after several missed doses,"[4]; 1.5 mg per day in six subcutaneous doses, doses inadvertently missed",feelings similar to those they had previously experienced in the postpartum period
same,"clearing of the ""blues"" after readministration","[4]; 1.5 mg per day in six subcutaneous doses, readministration after missed doses",cleared within hours of readministration
same,episodes of depression during uninterrupted treatment,"[4]; following year, patient not withdrawn from treatment",no similar episodes of depression were experienced
same,serum concentration,"[5]; dosage of about 6.0 μg/kg, printed spread ±0.3",about 1.8 ng/ml
same,serum concentration,"[5]; dosage of about 12.0 μg/kg, printed spread ±0.6",~3.6 ng/mL
same,serum concentration,"[5]; dosage of about 50 μg/kg, printed spread ±1.6",~11.8 ng/mL
same,time to peak serum concentration,[6],about 2 hours
same,patient-reported mood symptoms,[7]; about seven hours post dosing,significant anxiety/depression-like symptoms
same,relaxin serum concentration,"[7]; about seven hours post dosing, approximated",below 1 ng/ml
same,patient-reported wellbeing,[7]; about two hours post dosing (approximating peak serum concentration),significant improvement in wellbeing
same,signs of postpartum depression,[8],fewer signs of postpartum depression than the subjects in the control group
